In PMC10384982, “Investigation of Novel Benzoxazole-Oxadiazole Derivatives as Effective Anti-Alzheimer’s Agents: In Vitro and In Silico Approaches” (Pharmaceuticals, 2023):

Target: T1, butyrylcholinesterase (BuChE) (Equus caballus, UniProt P81908)
T1 construct: butyrylcholinesterase (E.C. 3.1.1.8) from equine serum; purchased Sigma–Aldrich (Steinheim, Germany); host or cells: equine serum
Assay: biochemical
Conditions: not given
Protocol: Acetylcholinesterase (E.C.3.1.1.7) (Type VI-S from electric eel and recombinant human enzyme) and butyrylcholinesterase (E.C. 3.1.1.8) from equine serum were purchased from Sigma–Aldrich (Steinheim, Germany). All of the materials used in the synthesis were purchased from Merck or Sigma–Aldrich (St. Louis, MO, USA) (Darmstadt, Germany). The ^1H NMR and ^13C NMR spectra in DMSO-d6 were recorded using a Bruker operating at 600 and 150 MHz digital FT-NMR spectrometer (Billerica, MA, USA, Bioscience, Bruker). The NMR spectra’s splitting patterns were recognized and categorized as doublet (d), singlet (s), double doublet (dd), multiplet (m) and triplet (t). In hertz, the coupling constants (J) are given (Hz). Mass spectra were captured on a Shimadzu LCMS-IT-TOF system (Kyoto, Japan) using the electrospray ionization (ESI) method. Using thin-layer chromatography and silica gel 60 F254 to test the purity of synthesized compounds (Darmstadt, Germany, Merck, KGaA).
The inhibition of AChE and BChE was determined using a method described earlier. Briefly, the stock solutions (1 mg/mL) of test analogues were prepared using DMSO. The working solutions (1–100 µg/mL) were prepared using serial dilutions (a serial dilution means a series of diluted solutions, e.g., 0.1 mg/mL, 0.2 mg/mL and so on; the solutions contained 5% DMSO and 95% water). The various concentrations of test compounds (10 µL) were pre-incubated with sodium phosphate buffer (0.1 M; pH 8.0; 150 µL) and AChE (0.1 U/mL; 20 µL) for 15 min at 25 °C. The reaction was initiated via the addition of DTNB (1 mM; 10 µL) and […] (1 mM; 10 µL). The mixture of reaction was mixed using a cyclomixer and incubated for 10 min at 25 °C. The absorbance was measured using a microplate reader at a 410 nm wavelength against the blank reading containing 10 µL DMSO instead of the test compound (the solution contained 5% DMSO and 95% water).

T1 sequence (P81908 whole entry): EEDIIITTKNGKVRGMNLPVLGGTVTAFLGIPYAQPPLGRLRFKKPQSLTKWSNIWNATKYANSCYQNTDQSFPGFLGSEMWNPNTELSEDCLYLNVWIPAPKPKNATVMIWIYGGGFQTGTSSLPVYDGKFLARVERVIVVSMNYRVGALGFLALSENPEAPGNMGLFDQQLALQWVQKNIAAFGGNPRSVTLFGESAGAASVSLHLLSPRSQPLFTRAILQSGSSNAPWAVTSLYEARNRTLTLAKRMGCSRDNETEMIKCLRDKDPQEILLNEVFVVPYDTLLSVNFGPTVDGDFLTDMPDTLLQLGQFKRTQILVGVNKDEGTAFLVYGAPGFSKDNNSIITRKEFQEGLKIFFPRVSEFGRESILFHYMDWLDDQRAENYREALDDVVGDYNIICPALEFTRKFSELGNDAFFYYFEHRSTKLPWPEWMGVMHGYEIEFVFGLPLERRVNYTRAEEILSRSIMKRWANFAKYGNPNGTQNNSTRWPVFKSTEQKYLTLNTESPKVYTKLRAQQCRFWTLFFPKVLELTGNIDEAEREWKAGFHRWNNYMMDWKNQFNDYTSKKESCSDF

SMILES | IC50 [µM]
O=[N+]([O-])c1ccc(-c2nnc(/N=C(/CSc3nc4ccccc4o3)c3cccc([N+](=O)[O-])c3)o2)cc1 [Compound 1, (E)-2-(Benzo[d]oxazol-2-ylthio)-1-(3-nitrophenyl)-N-(5-(4-nitrophenyl)-1,3,4-oxadiazol-2-yl)ethan-1-imine] | 8.9 ± 1.8
O=[N+]([O-])c1cccc(/C(CSc2nc3ccccc3o2)=N\c2nnc(-c3cccc([N+](=O)[O-])c3)o2)c1 [Compound 2, (E)-2-(Benzo[d]oxazol-2-ylthio)-1-(3-nitrophenyl)-N-(5-(3-nitrophenyl)-1,3,4-oxadiazol-2-yl)ethan-1-imine] | 7.5 ± 1.2

Same assay, conditions: read-out: BuChE Inhibition IC50 ± SEM

SMILES | IC50 [µM]
O=[N+]([O-])c1cccc(/C(CSc2nc3ccccc3o2)=N\c2nnc(-c3ccc(Cl)cc3Cl)o2)c1 [Compound 3, (E)-2-(Benzo[d]oxazol-2-ylthio)-N-(5-(2,4-dichlorophenyl)-1,3,4-oxadiazol-2-yl)-1-(3-nitrophenyl)ethan-1-imine] | 9.2 ± 1.9
O=[N+]([O-])c1cccc(/C(CSc2nc3ccccc3o2)=N\c2nnc(-c3ccc(Cl)cc3)o2)c1 [Compound 4, (E)-2-(Benzo[d]oxazol-2-ylthio)-N-(5-(4-chlorophenyl)-1,3,4-oxadiazol-2-yl)-1-(3-nitrophenyl)ethan-1-imine] | 11.9 ± 1.1
CN(C)c1ccc(-c2nnc(/N=C(/CSc3nc4ccccc4o3)c3cccc([N+](=O)[O-])c3)o2)cc1 [Compound 5, (E)-4-(5-((2-(Benzo[d]oxazol-2-ylthio)-1-(3-nitrophenyl)ethylidene)amino)-1,3,4-oxadiazol-2-yl)-N,N-dimethylaniline] | 16.6 ± 2.5
Cc1ccc(/C(CSc2nc3ccccc3o2)=N\c2nnc(-c3ccc(OCc4ccccc4)cc3)o2)cc1 [Compound 6, (E)-2-(Benzo[d]oxazol-2-ylthio)-N-(5-(4-(benzyloxy)phenyl)-1,3,4-oxadiazol-2-yl)-1-(p-tolyl)ethan-1-imine] | 28.6 ± 3.8
Cc1ccc(/C(CSc2nc3ccccc3o2)=N\c2nnc(-c3cccc([N+](=O)[O-])c3)o2)cc1 [Compound 7, (E)-2-(Benzo[d]oxazol-2-ylthio)-N-(5-(3-nitrophenyl)-1,3,4-oxadiazol-2-yl)-1-(p-tolyl)ethan-1-imine] | 15.8 ± 3.1
Cc1ccc(/C(CSc2nc3ccccc3o2)=N\c2nnc(-c3ccc(N(C)C)cc3)o2)cc1 [Compound 8, (E)-4-(5-((2-(Benzo[d]oxazol-2-ylthio)-1-(p-tolyl)ethylidene)amino)-1,3,4-oxadiazol-2-yl)-N,N-dimethylaniline] | 24.6 ± 3.8
Cc1ccc(/C(CSc2nc3ccccc3o2)=N\c2nnc(-c3ccc(Cl)cc3Cl)o2)cc1 [Compound 9, (E)-2-(Benzo[d]oxazol-2-ylthio)-N-(5-(2,4-dichlorophenyl)-1,3,4-oxadiazol-2-yl)-1-(p-tolyl)ethan-1-imine] | 14.8 ± 2.7
Cc1ccc(/C(CSc2nc3ccccc3o2)=N\c2nnc(-c3ccc([N+](=O)[O-])cc3)o2)cc1 [Compound 10, (E)-2-(Benzo[d]oxazol-2-ylthio)-N-(5-(4-nitrophenyl)-1,3,4-oxadiazol-2-yl)-1-(p-tolyl)ethan-1-imine] | 18.5 ± 1.9
Cc1ccc(/C(CSc2nc3ccccc3o2)=N\c2nnc(-c3ccc(Cl)cc3)o2)cc1 [Compound 11, (E)-2-(Benzo[d]oxazol-2-ylthio)-N-(5-(4-chlorophenyl)-1,3,4-oxadiazol-2-yl)-1-(p-tolyl)ethan-1-imine] | 12.3 ± 1.5
Cc1ccc(/C(CSc2nc3ccccc3o2)=N\c2nnc(-c3ccc(C=O)cc3)o2)cc1 [Compound 12, (E)-4-(5-((2-(Benzo[d]oxazol-2-ylthio)-1-(p-tolyl)ethylidene)amino)-1,3,4-oxadiazol-2-yl)benzaldehyde] | 28.7 ± 3.9
Cc1cccc(/C(CSc2nc3ccccc3o2)=N\c2nnc(-c3ccc(OCc4ccccc4)cc3)o2)c1 [Compound 13, (E)-2-(Benzo[d]oxazol-2-ylthio)-N-(5-(4-(benzyloxy)phenyl)-1,3,4-oxadiazol-2-yl)-1-(m-tolyl)ethan-1-imine] | 31.5 ± 4.9
Cc1ccc(/C(CSc2nc3ccccc3o2)=N\c2nnc(-c3ccc4ccccc4c3)o2)cc1 [Compound 14, (E)-2-(Benzo[d]oxazol-2-ylthio)-N-(5-(naphthalen-2-yl)-1,3,4-oxadiazol-2-yl)-1-(p-tolyl)ethan-1-imine] | 42.6 ± 6.1
Clc1ccc(/C(CSc2nc3ccccc3o2)=N\c2nnc(-c3ccc(Cl)c(Cl)c3)o2)cc1Cl [Compound 15, (E)-2-(Benzo[d]oxazol-2-ylthio)-1-(3,4-dichlorophenyl)-N-(5-(3,4-dichlorophenyl)-1,3,4-oxadiazol-2-yl)ethan-1-imine] | 7.2 ± 2.3
O=[N+]([O-])c1cccc(-c2nnc(/N=C(/CSc3nc4ccccc4o3)c3ccc(Cl)c(Cl)c3)o2)c1 [Compound 16, (E)-2-(Benzo[d]oxazol-2-ylthio)-1-(3,4-dichlorophenyl)-N-(5-(3-nitrophenyl)-1,3,4-oxadiazol-2-yl)ethan-1-imine] | 7.6 ± 2.1
Clc1ccc(-c2nnc(/N=C(/CSc3nc4ccccc4o3)c3ccc(Cl)c(Cl)c3)o2)cc1 [Compound 17, (E)-2-(Benzo[d]oxazol-2-ylthio)-N-(5-(4-chlorophenyl)-1,3,4-oxadiazol-2-yl)-1-(3,4-dichlorophenyl)ethan-1-imine] | 13.3 ± 3.2
CN(C)c1ccc(-c2nnc(/N=C(/CSc3nc4ccccc4o3)c3ccc(Cl)c(Cl)c3)o2)cc1 [Compound 18, (E)-4-(5-((2-(Benzo[d]oxazol-2-ylthio)-1-(3,4-dichlorophenyl)ethylidene)amino)-1,3,4-oxadiazol-2-yl)-N,N-dimethylaniline] | 18.3 ± 3.2
O=[N+]([O-])c1ccc(-c2nnc(/N=C(/CSc3nc4ccccc4o3)c3ccc(Cl)c(Cl)c3)o2)cc1 [Compound 19, (E)-2-(Benzo[d]oxazol-2-ylthio)-1-(3,4-dichlorophenyl)-N-(5-(4-nitrophenyl)-1,3,4-oxadiazol-2-yl)ethan-1-imine] | 9.8 ± 2.3
